In US20230404956A1, “T[…] FOR […]” (Asklepion Pharmaceuticals LLC, priority 2022, published 2023):

Tests used:
[1] = test system: pediatric patients exposed to cardiopulmonary bypass in congenital heart defect surgery; assay: Phase 3 double-blind, placebo-controlled trial of citrulline in congenital heart defect surgery with cardiopulmonary bypass; format: in vivo
Method: A Phase 3 study was carried out as a double-blind, placebo-controlled trial to confirm the effect. The Phase 3 trial was performed in the US, EU, and Israel, using a modified intent-to-treat population (or modified full analysis set) of 190 patients, of whom 138 were in the US and 52 were ex-US.
The starting point for the analysis was consideration of the complete modified full analysis set, consisting of all enrolled patients who completed the protocol. […] The Modified Full Analysis Set consists of all enrolled patients who completed the protocol.
In the study protocol and accompanying pharmacy manual for both studies, citrulline dosing occurs in four distinct phases. Dose 1 is a loading dose added to the cardiopulmonary bypass fluids on a mg/kg basis. Dose 3 is a bolus administered following surgery on a mg/kg basis, and Dose 4 is an IV drip at 9 mg/kg/hour. No variation in administration of these doses was introduced during the course of the phase 3 study.
In contrast, Dose 2, the intraoperative dosing designed to compensate for ultrafiltration, was subject to some variation. Ultrafiltration during cardiac surgery is not standardized, and therefore, it was not possible to completely standardize this dose. The perfusionist estimates the volume of ultrafiltrate removed, as well as the volume of cardioplegia solution. The perfusionist then calculates according to the study pharmacy manual instructions the amount of citrulline to be administered to compensate for the ultrafiltered citrulline in order to maintain a specified therapeutic level.
Although the therapeutic target level was set at 100 micromolar during the phase 2 study, because of the potential for variation in Dose 2 (which is given intraoperatively to compensate for the routine ongoing ultrafiltration of circulating bypass fluids to reduce the circulating concentrations of inflammatory mediators) and the concern that some patients might inadvertently receive sub-therapeutic intraoperative levels, the target level for Dose 2 in the phase 3 study was increased to 200 micromolar. This was considered to be safe since no adverse effects of citrulline had been reported, even at substantially higher levels in medical use. In order to examine whether variation in Dose 2 could explain the results obtained, the actual dose received, shown as the percent of the targeted dose, was plotted against the composite variable results. Since placebos received no citrulline, they were plotted at the 0% level.
For the Phase 3 trial, a target intraoperative dose of […] (Dose 2) was chosen to preclude an inadvertent drop below an efficacious level in any patient. The potential for variation in intraoperative dosing arises from the lack of standardization of cardiopulmonary bypass ultrafiltration techniques. […] Nonetheless, expansion of the study to a greater number of sites raised the concern that some sites might inadvertently underdose Dose 2. Given the known innocuous nature of L-citrulline, an endogenous amino acid that is given medicinally in doses an order of magnitude higher than this to urea cycle disorder patients, as well as the well-tolerated high endogenous concentrations of citrulline in hypercitrullinemia patients, there was no concern for erring on the high side of the presumed effective dose.
To investigate the data in more detail, patients were stratified according to the dose level actually administered intraoperatively. The values obtained for duration of mechanical ventilation (MV), length of inotrope therapy (InoTx) and the composite primary (created for the SAP, based on the longer of the MV or InoTx) in any patient were segmented into groups based on the percent of the 200 μmol target dose actually received by the patient, by comparing patients who had received <65%, <75%, <85%, <95%, and >95% of the calculated target dose. […] Analysis was performed via two-sided Wilcoxon Rank Sum. […]

nitric oxide production = assay: Nitric oxide production in a murine system, measured via NO metabolites
Excerpt: It is important to recall that citrulline is regenerated in the last step of NO production, making negative feedback by citrulline a reasonable hypothesis. Alternatively, an acute increase in NO production, which is known to have a negative feedback effect on NOS (Viziri and Wang, 1999) could explain the results. […] The negative clinical effects in the >95% group for the Phase 3 trial may thus result from one or more negative feedback mechanisms. The negative feedback could result from either the effect of NO or the citrulline itself creating feedback on the system.

[2] = test system: pediatric patients undergoing surgical procedures involving cardiopulmonary bypass; conditions: 22 patients (11 Tx, 11 PL); Dose 2 100 μmol; cited from earlier work

Structure (SMILES): NC(=O)NCCC[C@H](N)C(=O)O [citrulline, L-citrulline]
- Composite (the longer of the MV or InoTx), median ([1]; <65% of target Dose 2, p = 0.0040 vs placebo): 1267.0 min
- Vent (duration of mechanical ventilation), median ([1]; <65% of target Dose 2, p = 0.0097 vs placebo): 139.0 min
- Inotrope (duration of inotrope therapy), median ([1]; <65% of target Dose 2, p = 0.0211 vs placebo): 1260.0 min
- PICU/NICU stay, median ([1]; <65% of target Dose 2, p = 0.0236 vs placebo): 2 days
- Hospitalization, median ([1]; <65% of target Dose 2, p = 0.0953 vs placebo): 4 days
- Long-term hospitalizations, citrulline-treated vs placebo ([1]; <75% of calculated Dose 2): fewer long-term hospitalizations
- Overall length of hospital stay, citrulline vs placebo ([1]; <75% of calculated Dose 2): not significantly different
- Reduction of median Composite time vs placebo ([1]; <75% of target Dose 2): 42%
- Reduction of median Inotrope time vs placebo ([1]; <75% of target Dose 2): 26%
- Reduction of median Mechanical Ventilation time vs placebo ([1]; <75% of target Dose 2): 70%
- Reduction of median PICU/NICU stay vs placebo ([1]; <75% of target Dose 2): 33%
- Composite (the longer of the MV or InoTx), median ([1]; <75% of target Dose 2, p = 0.0025 vs placebo): 1267.0 min
- Vent (duration of mechanical ventilation), median ([1]; <75% of target Dose 2, p = 0.0129 vs placebo): 170.0 min
- Inotrope (duration of inotrope therapy), median ([1]; <75% of target Dose 2, p = 0.0158 vs placebo): 1260.0 min
- PICU/NICU stay, median ([1]; <75% of target Dose 2, p = 0.0295 vs placebo): 2 days
- Hospitalization, median ([1]; <75% of target Dose 2, p = 0.1905 vs placebo): 5 days
- Composite (the longer of the MV or InoTx), median ([1]; <85% of target Dose 2, p = 0.0029 vs placebo): 1283.5 min
- Vent (duration of mechanical ventilation), median ([1]; <85% of target Dose 2, p = 0.0163 vs placebo): 176.0 min
- Inotrope (duration of inotrope therapy), median ([1]; <85% of target Dose 2, p = 0.0176 vs placebo): 1263.5 min
- PICU/NICU stay, median ([1]; <85% of target Dose 2, p = 0.0332 vs placebo): 2 days
- Hospitalization, median ([1]; <85% of target Dose 2, p = 0.1369 vs placebo): 5 days
- Composite (the longer of the MV or InoTx), median ([1]; <95% of target Dose 2, p = 0.0033 vs placebo): 1357.0 min
- Inotrope (duration of inotrope therapy), median ([1]; <95% of target Dose 2, p = 0.0242 vs placebo): 1300.0 min
- Vent (duration of mechanical ventilation), median ([1]; <95% of target Dose 2, p = 0.0459 vs placebo): 237.0 min
- PICU/NICU stay, median ([1]; <95% of target Dose 2, p = 0.1232 vs placebo): 2 days
- Hospitalization, median ([1]; <95% of target Dose 2, p = 0.3169 vs placebo): 5 days
- Hospitalization, median ([1]; >95% of target Dose 2, p = 0.0006 vs placebo): 7 days
- PICU/NICU stay, median ([1]; >95% of target Dose 2, p = 0.0034 vs placebo): 4 days
- Vent (duration of mechanical ventilation), median ([1]; >95% of target Dose 2, p = 0.0041 vs placebo): 2385.0 min
- Inotrope (duration of inotrope therapy), median ([1]; >95% of target Dose 2, p = 0.0069 vs placebo): 3142.5 min
- Composite (the longer of the MV or InoTx), median ([1]; >95% of target Dose 2, p = 0.0114 vs placebo): 3447.0 min
- Composite (the longer of the MV or InoTx), median ([1]; All Patients, p = 0.3398 vs placebo (median 2204.0)): 1640.0 min
- Hospitalization, median ([1]; All Patients, p = 0.3681 vs placebo (median 5)): 5 days
- Inotrope (duration of inotrope therapy), median ([1]; All Patients, p = 0.7131 vs placebo (median 1717.0)): 1514.0 min
- PICU/NICU stay, median ([1]; All Patients, p = 0.8484 vs placebo (median 3)): 3 days
- Vent (duration of mechanical ventilation), median ([1]; All Patients, p = 0.9205 vs placebo (median 574.5)): 672.0 min
- Reduction in the length of stay in the PICU or NICU following surgery ([1]; Dose 2 at levels <95%, statistically significant): one
- Duration of MV, InoTx and composite primary, vs placebo ([1]; all doses under 95% of the target, two-sided Wilcoxon Rank Sum): Statistically significant reduction of all variables
- Composite endpoint, treated vs placebo ([1]; complete modified full analysis set): no difference
- Effect on composite variable, duration of mechanical ventilation and inotrope therapy vs placebo ([1]; doses higher than 95% of target (>190 μmol)): statistically significant negative effect
- Nitric oxide production as measured via NO metabolites (nitric oxide production; continued increase in citrulline concentration): diminished production of NO
- Nitric oxide production (nitric oxide production; increasing levels of citrulline, initially): initially facilitate nitric oxide production
- Primary parameters (duration of MV & InoTx), treated vs placebo [2]: near-significance
